Laboratory results taken from patent US4629737A, “Secondary amines and use in pharmaceutical compositions” (Beecham Group p.l.c., priority 1982, dated 1986).
Structures can show the parent of a compound that is named as a salt. Where two headings read alike, the source gives them in different places.

Key:
[1] = Effect on energy expenditure of mice; format: in vivo, Female CFLP mice; conditions: Mus musculus; for response vs control in vivo at 22.1 mg/kg: 22.1 mg/kg po
Method: Female CFLP mice, each weighing approximately 24 g were given food and water ad lib before and during the experiment. The compounds were dissolved in water by addition of one mole of hydrochloric acid per mole of compound and these solutions were administered orally to each of 12 mice. A further 12 mice were dosed orally with water. The mice were placed in boxes through which air was drawn and the oxygen content of the air leaving the boxes was measured. The energy expenditure of the mice was calculated for 21 hours after dosing from the volume of air leaving the boxes and its oxygen content, following the principles described by J. B. de V. Weir, J. Physiol. (London), 109, 1-9 (1949).

[2] = tested on: blood glucose; experiment: Hypoglycaemic activity: reduction in area under blood glucose curve after glucose load; format: in vivo, Female CFLP mice; conditions: Mus musculus, read-out: % Reduction in area under Blood Glucose Curve
Method: Female CFLP mice, weighing approximately 25 g, were fasted for 24 hours prior to the study. The compounds under study were administered orally as an aqueous solution to each of 6 mice. 30 minutes later a blood sample (10 μl) was obtained from the tail for the analysis of blood glucose. Immediately after taking this blood sample, glucose (1 g/Kg body weight) was administered subcutaneously to each mouse. 6 mice were given water as a control. Blood samples were then obtained from each mouse at 30 minute intervals for 120 minutes.
Compounds that produced a significant (P<0.05) reduction of blood glucose, compared with control mice given water, at any time interval, were considered active. The area under the blood glucose curve over the 2 hour period after the administration of the glucose was calculated for each compound and compared with the value for control animals.

[3] = po, 21 h, read-out: Mean Energy Expenditure (0-21 h)
[4] = po, 3 h, read-out: Mean Energy Expenditure (0-3 h)
[5] = 0-3 h, read-out: Mean Energy Expenditure (0-3 h)
[6] = 0-21 h, read-out: Mean Energy Expenditure (0-21 h)
[7] = 12.5 μmol/Kg oral, 2 h after glucose 1 g/Kg s.c., vs control

Compound `COC(CNC(C)Cc1ccc(OCCN(C)C)cc1)c1cccc(Cl)c1` (stereo not drawn) [Example 23, N-[2-(4-(2-Dimethylaminoethoxy)phenyl)-1-methylethyl]-2-methoxy-2-(3-chlorophenyl)ethanamine dihydrochloride hemihydrate] has a response vs control in vivo at 23.7 mg/kg [1, 3] of 130%, a response vs control in vivo at 23.7 mg/kg ([1]; 23.7 mg/kg po, 0-3 h, read-out: Mean Energy Expenditure (0-3 h)) of 163% and an inhibition in vivo at 2.5 µmol/kg ([2]; 2.5 μmol/Kg oral, 2 h after glucose 1 g/Kg s.c., vs control) of 35%.
Work on `CNCCOc1ccc(CC(C)NCC(OC)c2cccc(C(F)(F)F)c2)cc1` (stereo not drawn) [Example 46, N-[2-(4-(2-Methylaminoethoxy)phenyl)-1-methylethyl]-2-methoxy-2-(3-trifluoromethylphenyl)ethanamine dihydrochloride] yielded a response vs control in vivo at 24.2 mg/kg [1, 4] of 122%, a response vs control in vivo at 24.2 mg/kg [1, 3] of 104% and an inhibition in vivo at 5 µmol/kg ([2]; po, 2 h) of 20%.
For `CNC(=O)COc1ccc(CCC(C)NCC(OC)c2cccc(Cl)c2)cc1` (stereo not drawn) [Example 22, N-[3-(4-Methylaminocarbonylmethoxyphenyl)-1-methylpropyl]-2-methoxy-2-(3-chlorophenyl)ethanamine hydrochloride], the response vs control in vivo at 22.1 mg/kg [1, 5] was 126%, the response vs control in vivo at 22.1 mg/kg [1, 6] was 107% and the inhibition in vivo at 25 µmol/kg ([2]; 25 μmol/Kg oral, 2 h after glucose 1 g/Kg s.c., vs control) was 39%.
`CCOC(CNC(C)Cc1ccc(OCCNC)cc1)c1cccc(Cl)c1` (stereo not drawn) [Example 18, N-[2-(4-(2-Methylaminoethoxy)phenyl)-1-methylethyl]-2-ethoxy-2-(3-chlorophenyl)ethanamine dihydrochloride] gave a response vs control in vivo at 23.2 mg/kg [1, 4] of 115%, a response vs control in vivo at 23.2 mg/kg [1, 3] of 123% and an inhibition in vivo at 12.5 µmol/kg ([2]; po, 2 h) of 47.5%.
Compound `COC(CNC(C)Cc1ccc(OCCOc2ccccc2)cc1)c1cccc(Cl)c1` (stereo not drawn) [Example 57, N-[2-(4-(2-Phenoxyethoxy)phenyl)-1-methylethyl]-2-methoxy-2-(3-chlorophenyl)ethanamine hydrochloride] has a response vs control in vivo at 23.8 mg/kg [1, 4] of 178%, a response vs control in vivo at 23.8 mg/kg [1, 3] of 123% and an inhibition in vivo at 2.5 µmol/kg ([2]; po, 2 h) of 28%.
For `CNC(=O)COc1ccc(CC(C)NCC(OC)c2cccc(F)c2F)cc1` (stereo not drawn) [Example 54, N-[2-(4-Methylaminocarbonylmethoxyphenyl)-1-methylethyl]-2-methoxy-2-(2,3-difluorophenyl)ethanamine dihydrochloride], the inhibition in vivo at 25 µmol/kg ([2]; po, 2 h) was 40%.
Compound `COC(=O)c1ccc(CC(C)NCC(OC)c2cccc(C(F)(F)F)c2)cc1` (stereo not drawn) [Example 45, N-[2-(4-Carbomethoxyphenyl)-1-methylethyl]-2-methoxy-2-(3-trifluoromethylphenyl)ethanamine hydrochloride hemihydrate] has an inhibition in vivo at 12.5 µmol/kg [2, 7] of 38%.
In the case of `CNC(=O)COc1ccc(CC(C)NCC(OC)c2cccc(Cl)c2)cc1` (stereo not drawn) [Example 4, N-[2-(4-Methylaminocarbonylmethoxyphenyl)-1-methylethyl]-2-methoxy-2-(3-chlorophenyl)ethanamine hydrochloride], the response vs control in vivo at 8.5 mg/kg [1, 4] is reported as 152%, the response vs control in vivo at 8.5 mg/kg [1, 3] is reported as 120% and the inhibition in vivo at 1 µmol/kg ([2]; po, 2 h) is reported as 54%.
Work on `COC(=O)COc1cccc(CC(C)NCC(OC)c2cccc(Cl)c2)c1` (stereo not drawn) [Example 8, N-[2-(3-Carbomethoxymethoxyphenyl)-1-methylethyl]-2-methoxy-2-(3-chlorophenyl)ethanamine hydrochloride] yielded a response vs control in vivo at 21.4 mg/kg [1, 4] of 142%, a response vs control in vivo at 21.4 mg/kg [1, 3] of 111% and an inhibition in vivo at 12.5 µmol/kg ([2]; po, 2 h) of 49%.
With `COC(=O)COc1ccc(CCC(C)NCC(OC)c2cccc(Cl)c2)cc1` (stereo not drawn) [Example 14, N-[3-(4-Carbomethoxymethoxyphenyl)-1-methylpropyl)-2-methoxy-2-(3-chlorophenyl)ethanamine hydrochloride] the response vs control in vivo at 22.1 mg/kg [1, 5] was 135% and the response vs control in vivo at 22.1 mg/kg [1, 6] was 103%.
In the case of `COC(=O)c1ccc(CC(C)NCC(OC)c2ccccc2)cc1` (stereo not drawn) [Example 32, N-[2-(4-Carbomethoxyphenyl)-1-methylethyl]-2-methoxy-2-phenylethanamine hydrochloride hemihydrate], the inhibition in vivo at 12.5 µmol/kg [2, 7] is reported as 19%.
`COc1ccc(CC(C)NCC(OC)c2cccc(Cl)c2)cc1` (stereo not drawn) [Example 38, N-[2-(4-Methoxyphenyl)-1-methylethyl]-2-methoxy-2-(3-chlorophenyl)ethanamine hydrochloride] gave an inhibition in vivo at 25 µmol/kg ([2]; po, 2 h) of 38%.
